According to patent US11084826B2, “RSV antiviral pyrazolo- and triazolo-pyrimidine compounds” (Janssen Sciences Ireland Unlimited Company, priority 2015, dated 2021):

Columns and labels:
rgRSV224 virus = test: Antiviral activity: inhibition of rgRSV224 (GFP-expressing RSV) replication in HeLa cells, GFP expression read-out; format: cell-based, respiratory syncytial virus (RSV); settings: human respiratory syncytial virus, HeLa, read-out: RSV HELA pEC50, rgRSV224 virus (MOI=1) in HeLa cells, GFP read-out (converted)
Summary of the method: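 HeLa cells (3,000/well) were infected with GFP-expressing rgRSV224 (MOI=1) in the presence of 9 serial 4-fold compound dilutions (0.05% DMSO) and incubated at 37° C, 5% CO2. After three days, GFP expression was measured by laser microscopy. EC50 is the concentration giving 50% inhibition of GFP expression.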

[1] = Cytotoxicity in HeLa cells, ATP content measured with the ATPlite kit; format: cell-based; settings: human, TOX HELA pCC50

| SMILES | EC50 (rgRSV224 virus) [nM] | CC50 at 3 days [1] [nM] | melting point [°C] |
| --- | --- | --- | --- |
| CCc1cc(C(=O)N2CCn3c(C)ccc3C2C)nc2cc(-c3ccc(/C=C/C(=O)O)cc3F)nn12 (stereo not drawn) [Compound M42] | 191 | > 25100 | 240 to 245 |
| CCc1cc(C(=O)N2CCCCCC2C)nc2cc(-c3ccc(-c4ccc(C(=O)O)cn4)cc3F)nn12 (stereo not drawn) [Compound F14] | 182 | > 25100 | 245 to 250 |
| CCc1cc(C(=O)N2CCCCCC2C)nc2cc(-c3ccc(NC(=O)NCC4CCCO4)cc3)nn12 (stereo not drawn) [Compound B5] | 166 | > 100000 | 205 |
| CC1CCCCCN1C(=O)c1cc(N(C)C2CCCCC2)n2nc(-c3ccc(NC(=O)NCC4CCCO4)cc3)cc2n1 (stereo not drawn) [Compound B12] | 191 | > 100000 | 181 to 182 |
| CCc1cc(C(=O)N2CCCCCC2C)nc2cc(-c3ccc(C(=O)NCCNC(C)=O)cc3F)nn12 (stereo not drawn) [Compound L4] | 234 | > 25100 | 174 |
| C[C@@H]1CCCCCN1C(=O)c1cc(C2(C)CC2)n2nc(-c3ccc(-c4ccc(C(=O)O)cn4)cc3F)cc2n1 [Compound F31] | 49 | 32400 | 257.89 |
| CCc1cc(C(=O)N2CCCCCC2C)nc2c(F)c(-c3ccc(C(N)=O)cc3)nn12 (stereo not drawn) [Compound J2] | 263 | > 25100 | 195 to 200 |
| CCc1cc(C(=O)N2CCCCCC2C)nc2cc(-c3ccc(CO)cc3)nn12 (stereo not drawn) [Compound A21] | 891 | > 100000 | 155 to 160 |
| CCc1cc(C(=O)N2CCCCCC2C)nc2cc(-c3ccc(NC(=O)OCCO)cc3F)nn12 (stereo not drawn) [Compound C4] | 110 | > 25100 | 175 to 180 |
| CCc1cc(C(=O)N2CCCCCC2C)nc2cc(-c3ccc(C(=O)NC4CC4)cc3F)nn12 (stereo not drawn) [Compound L1] | 129 | > 25100 | 196 |
| CCc1cc(C(=O)N2CCc3ccccc3C2C)nc2cc(-c3ccc(/C=C/C(=O)O)cc3F)nn12 (stereo not drawn) [Compound M11] | 38 | > 25100 | 225 to 230 |
| C[C@@H]1c2ccsc2CCN1C(=O)c1cc(C2(C)CC2)n2nc(-c3ccc([C@@H]4C[C@H]4C(=O)O)cc3F)cc2n1 [Compound O21] | 11 | 55000 | 207.61 |
| C[C@@H]1c2ccccc2CCN1C(=O)c1cc(C2CC2)n2nc(-c3ccc(-n4cc(C(=O)O)cn4)cc3F)cc2n1 [Compound W33] | 16.2 | 57500 | 257.75 |
| CCc1cc(C(=O)N2CCCCCC2C)nc2cc(-c3ccc(C(=O)NO)cc3F)nn12 (stereo not drawn) [Compound L6] | 148 | 20400 | 180 |
| CCc1cc(C(=O)N2CCCCCC2C)nc2cc(-c3ccc(NC(=O)c4nccn4C)cc3F)nn12 (stereo not drawn) [Compound E1] | 617 | > 25100 | 210 to 215 |
| CCc1cc(C(=O)N2CCCCCC2C)nc2cc(-c3cccs3)nn12 (stereo not drawn) [Compound A1] | 5010 | > 50100 | 110 to 120 |
| CCc1cc(C(=O)N2CCCCCC2C)nc2cc(-c3ccc(-c4cccnc4)cc3F)nn12 (stereo not drawn) [Compound F4] | 724 | > 25100 | 167 to 168 |
| C[C@@H]1CCCCCN1C(=O)c1cc(C2CC2)n2nc(-c3ccc(C4C[C@H]4C(=O)O)cc3F)cc2n1 (single isomer, unassigned) [Compound O7] | 39.8 | 45700 | 245.75 |
| CCc1cc(C(=O)N2CCCCCC2C)nc2cc(-c3ccc(C(=O)NS(C)(=O)=O)cc3F)nn12 (stereo not drawn) [Compound L10] | 2690 | > 25100 | 194 |
| CCc1cc(C(=O)N2CCCCCC2C)nc2cc(-c3ccc(C(=O)NNCC4CC4)cc3F)nn12 (stereo not drawn) [Compound L9] | 372 | > 25100 | 140 |
